These are literature values, as cited in patent US12557843B2, “Other than cannabinoids, flavonoids, and terpenes” (priority 2020, dated 2026).

One data set addresses acetylcholinesterase (Homo sapiens, UniProt P22303).
Data set [1] relates to monoamine oxidase enzyme (MAO).
Another data set has as its target CB2 cannabinoid receptor (Homo sapiens, UniProt P34972).

Sequence of acetylcholinesterase (P22303 32-614, species assumed): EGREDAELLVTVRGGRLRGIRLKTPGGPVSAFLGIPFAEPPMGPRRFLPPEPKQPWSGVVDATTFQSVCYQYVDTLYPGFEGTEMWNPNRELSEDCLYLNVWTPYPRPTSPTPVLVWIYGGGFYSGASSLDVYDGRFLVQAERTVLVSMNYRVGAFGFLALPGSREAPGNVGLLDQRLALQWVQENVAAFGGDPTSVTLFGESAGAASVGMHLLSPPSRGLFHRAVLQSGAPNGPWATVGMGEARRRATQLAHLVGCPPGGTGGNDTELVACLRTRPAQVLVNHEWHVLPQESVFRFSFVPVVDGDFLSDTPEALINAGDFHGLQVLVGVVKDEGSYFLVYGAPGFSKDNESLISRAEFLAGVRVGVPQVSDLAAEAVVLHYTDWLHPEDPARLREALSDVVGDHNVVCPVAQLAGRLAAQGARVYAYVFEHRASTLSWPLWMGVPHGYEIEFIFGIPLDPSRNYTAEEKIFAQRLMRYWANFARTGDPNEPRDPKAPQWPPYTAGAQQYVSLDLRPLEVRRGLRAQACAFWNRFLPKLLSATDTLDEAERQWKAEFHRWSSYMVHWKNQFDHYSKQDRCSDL
Sequence of CB2 cannabinoid receptor (P34972 whole entry): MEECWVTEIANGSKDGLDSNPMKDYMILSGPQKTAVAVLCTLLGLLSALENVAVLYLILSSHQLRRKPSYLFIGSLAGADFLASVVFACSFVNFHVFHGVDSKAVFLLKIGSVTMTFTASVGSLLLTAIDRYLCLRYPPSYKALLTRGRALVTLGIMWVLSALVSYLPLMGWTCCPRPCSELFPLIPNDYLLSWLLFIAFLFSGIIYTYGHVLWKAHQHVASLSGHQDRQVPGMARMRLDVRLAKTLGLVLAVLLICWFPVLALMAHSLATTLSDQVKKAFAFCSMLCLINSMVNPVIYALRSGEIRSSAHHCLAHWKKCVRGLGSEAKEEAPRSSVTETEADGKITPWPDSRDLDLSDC

On to `C=C(C)[C@H]1CC=C(C)CC1` [Limonene], for which the “effects suggested by studies on laboratory animals” value in the data set with laboratory animals (limonene, rise of serotonin and dopamine in the brain) was “anxiolytic effects”. In the data set with breast cancer cells, the “apoptosis (cell death)” value was “produces apoptosis”.
Consider `CC1=CCC2CC1C2(C)C` (stereo not drawn) [A-pinene, α-pinene], for which the acetylcholinesterase inhibition result at acetylcholinesterase is “acetylcholinesterase inhibitor”.
As for `O=c1cc(-c2ccc(O)cc2)oc2cc(O)cc(O)c12` [apigenin], in the data set on GABA receptors, the “action on the GABA receptors” value is “anxiolytic and sedative”.
Regarding `C=CC(C)(O)CCC=C(C)C` (stereo not drawn) [Linalool], the “effects in laboratory animals” value with laboratory animals (linalool, mediated by adenosine A2A and glutamate receptors) was “analgesic effects”.
As for `O=c1c(O)c(-c2ccc(O)c(O)c2)oc2cc(O)cc(O)c12` [quercitin, quercetin], the “effect on monoamine oxidase enzyme (MAO)” value in data set [1] was “inhibits”.
Consider `C=CC(=C)CCC=C(C)C` [Myrcene], for which the “properties shown in studies on laboratory animals” value in the data set on laboratory animals (myrcene, laboratory animals) was “sedative, hypnotic, analgesic and muscle relaxant properties”.
As for `COc1cc(-c2cc(=O)c3c(O)c(C/C=C(\C)CCC=C(C)C)c(O)cc3o2)ccc1O` [cannaflavin-A], the “effect on PGE-2” value in the data set on PGE-2 is reported as “inhibits”. The “anti-inflammatory power compared with aspirin” value in the data set on PGE-2 (relative to aspirin) is recorded as “exponentially more powerful than aspirin”.
Regarding `C=C1CC/C=C(\C)CC[C@@H]2[C@@H]1CC2(C)C` [B-caryophyllene, β-caryophyllene], the “effects proven in animal models” value in the data set with laboratory animals (β-caryophyllene, animal models, not yet in humans) is “anti-inflammatory and analgesic effects”. The “CB2 cannabinoid receptor activity” value at CB2 cannabinoid receptor is “CB2 cannabinoid receptor agonist”.
Consider `CC12CCC(CC1)C(C)(C)O2` [Eucalyptol, 1,8-cineol], for which the “in vitro anti-leukaemia activity” value in the data set on leukaemia is recorded as “in vitro anti-leukaemia properties”.
